For 20 compounds, IC50 and Selectivity results are on record in ChEMBL document CHEMBL1144263, “Synthesis and acetylcholinesterase inhibition of derivatives of huperzine B” (Bioorg Med Chem Lett, 2005).

For orientation: IC50 means the midpoint of a concentration-inhibition curve. A high value points to a need for much substance.

In one test the target is Butyrylcholinesterase (Rattus norvegicus, UniProt Q9JKC1). Put plainly: Inhibitory concentration against butyrylcholinesterase from rat serum.
Sequence of Butyrylcholinesterase (Q9JKC1 whole entry): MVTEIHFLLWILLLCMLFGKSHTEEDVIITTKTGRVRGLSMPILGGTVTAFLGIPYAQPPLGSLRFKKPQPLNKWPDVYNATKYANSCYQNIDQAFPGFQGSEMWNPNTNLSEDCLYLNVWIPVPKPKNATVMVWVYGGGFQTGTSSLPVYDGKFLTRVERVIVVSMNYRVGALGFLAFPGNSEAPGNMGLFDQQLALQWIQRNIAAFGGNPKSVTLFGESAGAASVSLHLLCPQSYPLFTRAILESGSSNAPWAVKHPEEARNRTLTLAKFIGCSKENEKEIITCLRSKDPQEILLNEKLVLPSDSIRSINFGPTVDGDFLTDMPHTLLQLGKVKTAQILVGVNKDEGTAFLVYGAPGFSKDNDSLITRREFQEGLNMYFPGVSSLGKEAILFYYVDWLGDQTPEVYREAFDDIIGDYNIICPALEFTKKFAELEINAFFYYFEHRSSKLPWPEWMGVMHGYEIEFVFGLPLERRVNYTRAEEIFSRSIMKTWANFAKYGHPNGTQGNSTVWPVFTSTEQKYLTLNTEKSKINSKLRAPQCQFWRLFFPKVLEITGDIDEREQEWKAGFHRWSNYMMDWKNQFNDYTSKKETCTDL
Test [1] has as its target Acetylcholinesterase and butyrylcholinesterase (AChE and BChE) (Rattus norvegicus) (UniProt P37136+Q9JKC1). Put plainly: Ratio of inhibitory concentration for AChE and BChE. The class given is protein assay.
In a further test the target is T1, Acetylcholinesterase (Rattus norvegicus, UniProt P37136).
T1 sequence (P37136 whole entry): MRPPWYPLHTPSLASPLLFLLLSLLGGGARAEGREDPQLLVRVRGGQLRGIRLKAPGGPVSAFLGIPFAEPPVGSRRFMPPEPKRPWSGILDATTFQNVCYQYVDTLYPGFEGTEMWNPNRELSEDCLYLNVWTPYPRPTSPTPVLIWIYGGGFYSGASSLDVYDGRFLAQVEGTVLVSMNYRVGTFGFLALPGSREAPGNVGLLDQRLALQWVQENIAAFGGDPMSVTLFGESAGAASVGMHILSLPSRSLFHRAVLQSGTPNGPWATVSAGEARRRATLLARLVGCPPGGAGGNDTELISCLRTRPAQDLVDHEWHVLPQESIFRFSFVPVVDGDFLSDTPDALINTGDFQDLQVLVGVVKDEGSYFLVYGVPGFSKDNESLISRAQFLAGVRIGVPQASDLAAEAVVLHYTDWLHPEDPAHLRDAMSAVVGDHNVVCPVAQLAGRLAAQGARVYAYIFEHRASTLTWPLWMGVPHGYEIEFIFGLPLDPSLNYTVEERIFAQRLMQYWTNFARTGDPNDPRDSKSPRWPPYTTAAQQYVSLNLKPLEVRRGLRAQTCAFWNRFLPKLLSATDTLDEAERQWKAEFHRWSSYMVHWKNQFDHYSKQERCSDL
Description: Inhibitory concentration against acetylcholinesterase from rat cortex homogenate by ellman method was determined.

Where only a bound is given, the exact number is not on record here.

Sequence of Acetylcholinesterase and butyrylcholinesterase (AChE and BChE) (Rattus norvegicus) (Q9JKC1 1-597, one chain of several): as the sequence (Q9JKC1 whole entry) above

Consider `CC1=CC2Cc3[nH]c(=O)ccc3[C@@]3(C1)[C@@H]2CCCN3CCN1CCN(CC[N+]2(C(=O)CN)CCC[C@@H]3C4C=C(C)C[C@]32c2ccc(=O)[nH]c2C4)CC1` (stereo partly drawn), for which the IC50 against Butyrylcholinesterase stood at 192 µM; at Acetylcholinesterase, 0.407 µM. The Selectivity in test [1] was found to be 472. For `COc1ccc(CN2CCN(CC(=O)N3CCC[C@@H]4C5C=C(C)C[C@]43c3ccc(=O)[nH]c3C5)CC2)cc1`, on Acetylcholinesterase, the IC50 was determined as 5.75 µM. In turn, `CC1=C[C@H]2Cc3[nH]c(=O)ccc3[C@@]3(C1)NCCC[C@H]23` displayed an IC50 at Butyrylcholinesterase of 157 µM. Consider `CC1=C[C@H]2Cc3[nH]c(=O)ccc3[C@@]3(C1)[C@@H]2CCCN3CCN(Cc1ccccc1)c1ccccc1`, for which, at Acetylcholinesterase, the IC50 was more than 54 µM. The same measure, in the same setting: the value for `CC1=C[C@H]2Cc3nc(O)ccc3[C@@]3(C1)[C@@H]2CCCN3CN1CCN(Cc2ccccc2)CC1` was 31.6 µM; that for `CC1=C[C@H]2Cc3nc(O)ccc3[C@@]3(C1)[C@@H]2CCCN3CCN(C)Cc1ccccc1` was 66.5 µM. Compound `CC1=CC2Cc3[nH]c(=O)ccc3[C@@]3(C1)[C@@H]2CCCN3C(=O)CN(C)CCc1ccccc1` showed an IC50 on Acetylcholinesterase of 23.5 µM. `COc1ccc(CN2CCN(CN3CCC[C@@H]4[C@H]5C=C(C)C[C@]43c3ccc(O)nc3C5)CC2)cc1` showed an IC50 against Acetylcholinesterase of 10.3 µM. As for `CC1=C[C@H]2Cc3[nH]c(=O)ccc3[C@@]3(C1)[C@@H]2CCCN3C(=O)CN1CCCN(CC(=O)N2CCC[C@@H]3[C@H]4C=C(C)C[C@]32c2ccc(=O)[nH]c2C4)CC1`, the IC50 was determined as 171 µM against Butyrylcholinesterase and 0.114 µM at Acetylcholinesterase. The Selectivity in test [1] was 1500.

Consider `CC1=C[C@H]2Cc3[nH]c(=O)ccc3[C@@]3(C1)[C@@H]2CCCN3CCN1CCCN(CCN2CCC[C@@H]3[C@H]4C=C(C)C[C@]32c2ccc(=O)[nH]c2C4)CC1`, for which the IC50 was 125 µM against Butyrylcholinesterase and 0.218 µM against Acetylcholinesterase. Further, the Selectivity in test [1] is 573.

At Acetylcholinesterase, `CC1=C[C@H]2Cc3nc(O)ccc3[C@@]3(C1)[C@@H]2CCCN3C(=O)N1CCN(Cc2cccnc2)CC1` showed an IC50 of 38.1 µM.

Take `CC1=C[C@H]2Cc3nc(O)ccc3[C@@]3(C1)[C@@H]2CCCN3CCN1CCN(Cc2cccnc2)CC1`: the IC50 against Acetylcholinesterase came to 26.7 µM. On Acetylcholinesterase, `CC1=C[C@H]2Cc3nc(O)ccc3[C@@]3(C1)[C@@H]2CCCN3CCN(C)CCc1ccccc1` yielded an IC50 of 20.7 µM. This IC50 and that of the compound before are within 1.5-fold of each other. In the case of `CC1=C[C@H]2Cc3[nH]c(=O)ccc3[C@@]3(C1)[C@@H]2CCCN3C(=O)CN1CCN(CC(=O)N2CCC[C@@H]3[C@H]4C=C(C)C[C@]32c2ccc(=O)[nH]c2C4)CC1`, the IC50 against Butyrylcholinesterase was more than 184 µM; against Acetylcholinesterase, 1.17 µM. Moreover, the Selectivity in test [1] was more than 157. For `CC1=CC2Cc3[nH]c(=O)ccc3[C@@]3(C1)[C@@H]2CCCN3C(=O)CN(C)CCCc1ccccc1`, at Acetylcholinesterase, the 50% inhibitory concentration (IC50) turned out to be 6.19 µM. `CC1=CC2Cc3[nH]c(=O)ccc3[C@@]3(C1)[C@@H]2CCCN3C(=O)CN1CCN(Cc2ccccc2)CC1` came in with an IC50 at Acetylcholinesterase of 33.3 µM. `CC1=C[C@H]2Cc3nc(O)ccc3[C@@]3(C1)[C@@H]2CCCN3CCN(C)CCCc1ccccc1`: inhibition against Acetylcholinesterase was half-maximal at 9.53 µM (IC50). Take `CC1=C[C@H]2Cc3[nH]c(=O)ccc3[C@@]3(C1)[C@@H]2CCCN3C(=O)CN(C)Cc1ccccc1`: the half-inhibitory concentration (IC50) on Acetylcholinesterase is 50.7 µM. Take `CC1=C[C@H]2Cc3nc(O)ccc3[C@@]3(C1)[C@@H]2CCCN3C(=O)CN(Cc1ccccc1)c1ccccc1`: at Acetylcholinesterase, the IC50 is more than 52 µM. Regarding `CC1=CC2Cc3[nH]c(=O)ccc3[C@@]3(C1)[C@@H]2CCCN3C(=O)CN1CCN(Cc2ccc([N+](=O)[O-])cc2)CC1`, the IC50 at Acetylcholinesterase was determined as 5.58 µM.
